Test results taken from patent US20250255867A1 (Kadmon Corporation, LLC, priority 2022, published 2025).

Conditions: Cohort 1 200 mg QD

In the case of `CC(C)NC(=O)COc1cccc(-c2nc(Nc3ccc4[nH]ncc4c3)c3ccccc3n2)c1` [Belumosudil, 2-{3-[4-(1H-indazol-5-ylamino)-2-quinazolinyl]phenoxy}-N-(propan-2-yl) acetamide], the “SAE Lipomatosis, # events” value is reported as 1, the “SAE Lipomatosis, affected/at risk” value is reported as 1/17 and the “SAE Metastases to meninges, # events” value is reported as 1. For the same molecule, the “SAE Metastases to meninges, affected/at risk” value was 1/17, the “SAE Muscular weakness, # events” value was 0 and the “SAE Muscular weakness, affected/at risk” value was 0/17. For the same molecule, the “SAE Myelodysplastic syndrome, # events” value was 0, the “SAE Myelodysplastic syndrome, affected/at risk” value was 0/17 and the “SAE Non-cardiac chest pain, # events” value was 0. For the same molecule, the “SAE Non-cardiac chest pain, affected/at risk” value was 0/17, the “SAE Obliterative bronchiolitis, # events” value was 1 and the “SAE Obliterative bronchiolitis, affected/at risk” value was 1/17. For the same molecule, the “SAE Pericardial effusion, # events” value was 0, the “SAE Pericardial effusion, affected/at risk” value was 0/17 and the “SAE Pleural effusion, # events” value was 0. The “SAE Pleural effusion, affected/at risk” value was 0/17, the “SAE Pneumonia viral, # events” value was 0 and the “SAE Pneumonia viral, affected/at risk” value was 0/17. The “SAE Pneumonia, # events” value was 2, the “SAE Pneumonia, affected/at risk” value was 1/17 and the “SAE Pregnancy of partner, # events” value was 0. For the same molecule, the “SAE Pregnancy of partner, affected/at risk” value was 0/17, the “SAE Proteinuria, # events” value was 1 and the “SAE Proteinuria, affected/at risk” value was 1/17. For the same molecule, the “SAE Respirovirus test positive, # events” value was 0, the “SAE Respirovirus test positive, affected/at risk” value was 0/17 and the “SAE Small intestinal obstruction, # events” value was 0. For the same molecule, the “SAE Small intestinal obstruction, affected/at risk” value was 0/17, the “SAE Stenotrophomonas infection, # events” value was 0 and the “SAE Stenotrophomonas infection, affected/at risk” value was 0/17. For the same molecule, the “SAE Urinary retention, # events” value was 0, the “SAE Urinary retention, affected/at risk” value was 0/17 and the “SAE Urinary tract infection, # events” value was 0. For the same molecule, the “SAE Urinary tract infection, affected/at risk” value was 0/17, the “SAE Varicella zoster virus infection, # events” value was 0 and the “SAE Varicella zoster virus infection, affected/at risk” value was 0/17. The “SAE total, affected/at risk” value was 5/17, the “Sinus pain: # Events” value was 2 and the “Sinus pain: Affected/At Risk” value was 2/17. The “Sinus pain: Affected/At Risk (%)” value was “(11.76%)”, the “Sinusitis: # Events” value was 1 and the “Sinusitis: Affected/At Risk” value was 1/17. The “Sinusitis: Affected/At Risk (%)” value was “(5.88%)”, the “Skin abrasion: # Events” value was 0 and the “Skin abrasion: Affected/At Risk” value was 0/17. The “Skin abrasion: Affected/At Risk (%)” value was “(0%)”, the “Skin lesion: # Events” value was 0 and the “Skin lesion: Affected/At Risk” value was 0/17. For the same molecule, the “Skin lesion: Affected/At Risk (%)” value was “(0%)”, the “Skin papilloma: # Events” value was 1 and the “Skin papilloma: Affected/At Risk” value was 1/17. For the same molecule, the “Skin papilloma: Affected/At Risk (%)” value was “(5.88%)”, the “Spinal compression fracture: # Events” value was 1 and the “Spinal compression fracture: Affected/At Risk” value was 1/17. The “Spinal compression fracture: Affected/At Risk (%)” value was “(5.88%)”, the “Squamous cell carcinoma of skin: # Events” value was 0 and the “Squamous cell carcinoma of skin: Affected/At Risk” value was 0/17. For the same molecule, the “Squamous cell carcinoma of skin: Affected/At Risk (%)” value was “(0%)”, the “Stomatitis: # Events” value was 2 and the “Stomatitis: Affected/At Risk” value was 1/17. The “Stomatitis: Affected/At Risk (%)” value was “(5.88%)”, the “Superior vena cava syndrome: # Events” value was 0 and the “Superior vena cava syndrome: Affected/At Risk” value was 0/17. For the same molecule, the “Superior vena cava syndrome: Affected/At Risk (%)” value was “(0%)”, the “Tachycardia: # Events” value was 0 and the “Tachycardia: Affected/At Risk” value was 0/17. For the same molecule, the “Tachycardia: Affected/At Risk (%)” value was “(0%)”, the “Tendonitis: # Events” value was 0 and the “Tendonitis: Affected/At Risk” value was 0/17. The “Tendonitis: Affected/At Risk (%)” value was “(0%)”, the “Testicular pain: # Events” value was 1 and the “Testicular pain: Affected/At Risk” value was 1/17. The “Testicular pain: Affected/At Risk (%)” value was “(5.88%)”, the “Testicular swelling: # Events” value was 1 and the “Testicular swelling: Affected/At Risk” value was 1/17. For the same molecule, the “Testicular swelling: Affected/At Risk (%)” value was “(5.88%)”, the “Thoracic spinal stenosis: # Events” value was 1 and the “Thoracic spinal stenosis: Affected/At Risk” value was 1/17. For the same molecule, the “Thoracic spinal stenosis: Affected/At Risk (%)” value was “(5.88%)”, the “Thrombocytopenia: # Events” value was 0 and the “Thrombocytopenia: Affected/At Risk” value was 0/17. For the same molecule, the “Thrombocytopenia: Affected/At Risk (%)” value was “(0%)”, the “Thrombocytosis: # Events” value was 1 and the “Thrombocytosis: Affected/At Risk” value was 1/17. The “Thrombocytosis: Affected/At Risk (%)” value was “(5.88%)”, the “Tinea pedis: # Events” value was 0 and the “Tinea pedis: Affected/At Risk” value was 0/17. For the same molecule, the “Tinea pedis: Affected/At Risk (%)” value was “(0%)”, the “Tooth fracture: # Events” value was 0 and the “Tooth fracture: Affected/At Risk” value was 0/17. The “Tooth fracture: Affected/At Risk (%)” value was “(0%)”, the “Total Other Adverse Events: Affected/At Risk” value was 17/17 and the “Total Other Adverse Events: Affected/At Risk (%)” value was “(100%)”. For the same molecule, the “Transfusion reaction: # Events” value was 1, the “Transfusion reaction: Affected/At Risk” value was 1/17 and the “Transfusion reaction: Affected/At Risk (%)” value was “(5.88%)”. For the same molecule, the “Tremor: # Events” value was 3, the “Tremor: Affected/At Risk” value was 2/17 and the “Tremor: Affected/At Risk (%)” value was “(11.76%)”. For the same molecule, the “Type 2 diabetes mellitus: # Events” value was 1, the “Type 2 diabetes mellitus: Affected/At Risk” value was 1/17 and the “Type 2 diabetes mellitus: Affected/At Risk (%)” value was “(5.88%)”. For the same molecule, the “Ulcerative keratitis: # Events” value was 0, the “Ulcerative keratitis: Affected/At Risk” value was 0/17 and the “Ulcerative keratitis: Affected/At Risk (%)” value was “(0%)”. The “Upper respiratory tract infection: # Events” value was 16, the “Upper respiratory tract infection: Affected/At Risk” value was 9/17 and the “Upper respiratory tract infection: Affected/At Risk (%)” value was “(52.94%)”. The “Upper-airway cough syndrome: # Events” value was 0, the “Upper-airway cough syndrome: Affected/At Risk” value was 0/17 and the “Upper-airway cough syndrome: Affected/At Risk (%)” value was “(0%)”. For the same molecule, the “Urinary retention: # Events” value was 0, the “Urinary retention: Affected/At Risk” value was 0/17 and the “Urinary retention: Affected/At Risk (%)” value was “(0%)”. For the same molecule, the “Urinary tract infection: # Events” value was 0, the “Urinary tract infection: Affected/At Risk” value was 0/17 and the “Urinary tract infection: Affected/At Risk (%)” value was “(0%)”. The “Urinary tract pain: # Events” value was 0, the “Urinary tract pain: Affected/At Risk” value was 0/17 and the “Urinary tract pain: Affected/At Risk (%)” value was “(0%)”. For the same molecule, the “Urine output decreased: # Events” value was 1, the “Urine output decreased: Affected/At Risk” value was 1/17 and the “Urine output decreased: Affected/At Risk (%)” value was “(5.88%)”. For the same molecule, the “Vascular access complication: # Events” value was 0, the “Vascular access complication: Affected/At Risk” value was 0/17 and the “Vascular access complication: Affected/At Risk (%)” value was “(0%)”. For the same molecule, the “Vertigo: # Events” value was 2, the “Vertigo: Affected/At Risk” value was 2/17 and the “Vertigo: Affected/At Risk (%)” value was “(11.76%)”. The “Vision blurred: # Events” value was 0, the “Vision blurred: Affected/At Risk” value was 0/17 and the “Vision blurred: Affected/At Risk (%)” value was “(0%)”. For the same molecule, the “Vomiting: # Events” value was 4, the “Vomiting: Affected/At Risk” value was 2/17 and the “Vomiting: Affected/At Risk (%)” value was “(11.76%)”. For the same molecule, the “Weight decreased: # Events” value was 1 and the “Weight decreased: Affected/At Risk” value was 1/17.
